Experimental data published in ChEMBL document CHEMBL5500406, “Discovery of Novel Proteolysis-Targeting Chimera Molecules as Degraders of Programmed Cell Death-Ligand 1 for Breast Cancer Therapy” (J Med Chem, 2024).
pIC50, pKd: −log10 of the molar value. Activity calls are given as the source filed them. The calls are words filed in the database; no cut-off is given here.

How the values were obtained:
[1] = molecular target: T1, Protein cereblon/Programmed cell death 1 ligand 1 (Mus musculus) (UniProt Q9EP73+Q8C7D2); test: PROTAC activity at CRBN/PD-L1 in mouse 4T1 cells assessed as protein degradation at 0.078 to 2.5 uM incubated for 24 hrs by Western blot analysis; format: cell-based; conditions: dose 0.078-2.5 µM
T1 sequence (Q9EP73 19-290 limits assumed, one chain of several): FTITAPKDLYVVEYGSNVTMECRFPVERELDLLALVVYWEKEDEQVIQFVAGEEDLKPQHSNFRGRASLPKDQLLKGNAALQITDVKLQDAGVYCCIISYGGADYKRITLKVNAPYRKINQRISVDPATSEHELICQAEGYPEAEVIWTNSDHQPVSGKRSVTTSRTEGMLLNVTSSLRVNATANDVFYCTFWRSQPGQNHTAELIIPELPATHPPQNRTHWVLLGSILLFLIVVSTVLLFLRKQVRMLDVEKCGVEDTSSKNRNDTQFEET

[2] = molecular target: T1, Protein cereblon/Programmed cell death 1 ligand 1 (Mus musculus); test: PROTAC activity at CRBN/PD-L1 in mouse 4T1 cells assessed as protein degradation at 0.312 uM incubated for 24 hrs by Western blot analysis relative to control; format: cell-based
[3] = molecular target: Protein cereblon/Programmed cell death 1 ligand 1 (Mus musculus, UniProt Q9EP73+Q8C7D2); test: PROTAC activity at CRBN/PD-L1 in mouse 4T1 cells assessed as protein degradation incubated for 24 hrs by Western blot analysis; format: cell-based
Chain of Protein cereblon/Programmed cell death 1 ligand 1 (Q9EP73 whole entry, one chain of several): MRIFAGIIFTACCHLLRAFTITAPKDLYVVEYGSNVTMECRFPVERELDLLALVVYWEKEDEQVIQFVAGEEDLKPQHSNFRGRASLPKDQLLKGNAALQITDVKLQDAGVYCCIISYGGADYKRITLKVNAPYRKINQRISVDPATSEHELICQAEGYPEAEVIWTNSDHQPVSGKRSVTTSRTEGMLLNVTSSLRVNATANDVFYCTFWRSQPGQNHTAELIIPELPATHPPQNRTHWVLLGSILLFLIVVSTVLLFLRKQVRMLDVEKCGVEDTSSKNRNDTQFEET

[4] = molecular target: T1, Protein cereblon/Programmed cell death 1 ligand 1 (Mus musculus); test: PROTAC activity at CRBN/PD-L1 in mouse 4T1 cells assessed as protein degradation at 0.078 to 10 uM measured for 48 hrs by Western blot analysis; format: cell-based; conditions: dose 0.078-10 µM
[5] = molecular target: T2, Protein cereblon/Programmed cell death 1 ligand 1 (Homo sapiens) (UniProt Q9NZQ7+Q96SW2); test: PROTAC activity at CRBN/PD-L1 in human MDA-MB-231 cells assessed as protein degradation at >=5 uM measured for 24 hrs by Western blot analysis; format: cell-based
T2 sequence (Q96SW2 whole entry, looked up): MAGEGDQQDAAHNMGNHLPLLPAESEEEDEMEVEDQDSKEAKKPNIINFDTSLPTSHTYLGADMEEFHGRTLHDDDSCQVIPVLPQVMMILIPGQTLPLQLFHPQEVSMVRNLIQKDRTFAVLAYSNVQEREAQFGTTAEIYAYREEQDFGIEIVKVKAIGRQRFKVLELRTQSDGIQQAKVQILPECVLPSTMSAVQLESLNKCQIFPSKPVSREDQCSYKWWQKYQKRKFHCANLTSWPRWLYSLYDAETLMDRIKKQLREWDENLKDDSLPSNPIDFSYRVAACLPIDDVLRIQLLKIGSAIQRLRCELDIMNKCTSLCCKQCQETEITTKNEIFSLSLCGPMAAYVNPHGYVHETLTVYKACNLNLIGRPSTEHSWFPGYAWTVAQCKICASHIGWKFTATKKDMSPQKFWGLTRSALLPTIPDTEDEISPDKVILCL
T2 sequence (Q9NZQ7 whole entry, looked up): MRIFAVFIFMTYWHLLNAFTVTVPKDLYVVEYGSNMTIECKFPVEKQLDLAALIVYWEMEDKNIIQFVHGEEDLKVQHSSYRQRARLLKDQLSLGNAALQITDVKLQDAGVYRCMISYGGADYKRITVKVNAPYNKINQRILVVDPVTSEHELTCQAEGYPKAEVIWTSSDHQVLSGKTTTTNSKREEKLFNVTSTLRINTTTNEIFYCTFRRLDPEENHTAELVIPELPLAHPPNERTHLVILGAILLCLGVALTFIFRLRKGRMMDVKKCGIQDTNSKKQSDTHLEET

[6] = molecular target: T2, Protein cereblon/Programmed cell death 1 ligand 1 (Homo sapiens); test: PROTAC activity at CRBN/PD-L1 in human NCI-H2228 cells assessed as protein degradation at >=5 uM measured for 24 hrs by Western blot analysis; format: cell-based
[7] = molecular target: T1, Protein cereblon/Programmed cell death 1 ligand 1 (Mus musculus); test: PROTAC activity at CRBN/PD-L1 in mouse 4T1 cells assessed as protein degradation at 0.312 uM incubated for 24 hrs in presence of siCRBN by Western blot analysis; format: cell-based
[8] = molecular target: T1, Protein cereblon/Programmed cell death 1 ligand 1 (Mus musculus); test: PROTAC activity at CRBN/PD-L1 in mouse 4T1 cells assessed as protein degradation at 0.312 uM incubated for 24 hrs in presence of MG132 by Western blot analysis; format: cell-based
[9] = molecular target: T1, Protein cereblon/Programmed cell death 1 ligand 1 (Mus musculus); test: PROTAC activity at CRBN/PD-L1 in mouse 4T1 cells assessed as reduction in green fluorescence in cytoplasm at 0.312 uM incubated for 24 hrs by immunofluorescence analysis; format: subcellular
[10] = molecular target: T1, Protein cereblon/Programmed cell death 1 ligand 1 (Mus musculus); test: PROTAC activity at CRBN/PD-L1 in mouse 4T1 cells assessed as protein degradation at 0.078 to 0.312 uM incubated for 24 hrs by flow cytometry; format: cell-based; conditions: dose 0.078-0.312 µM
[11] = molecular target: T1, Protein cereblon/Programmed cell death 1 ligand 1 (Mus musculus); test: PROTAC activity at CRBN/PD-L1 in mouse 4T1 cells assessed as reduction in green fluorescence in cell membrane at 0.312 uM incubated for 24 hrs by immunofluorescence analysis; format: cell membranes
Protein cereblon = molecular target: T3, Protein cereblon (Mus musculus, UniProt Q8C7D2); test: Binding affinity to mouse CRBN assessed as dissociation constant incubated for 15 mins by MST assay
T3 sequence (Q8C7D2 whole entry): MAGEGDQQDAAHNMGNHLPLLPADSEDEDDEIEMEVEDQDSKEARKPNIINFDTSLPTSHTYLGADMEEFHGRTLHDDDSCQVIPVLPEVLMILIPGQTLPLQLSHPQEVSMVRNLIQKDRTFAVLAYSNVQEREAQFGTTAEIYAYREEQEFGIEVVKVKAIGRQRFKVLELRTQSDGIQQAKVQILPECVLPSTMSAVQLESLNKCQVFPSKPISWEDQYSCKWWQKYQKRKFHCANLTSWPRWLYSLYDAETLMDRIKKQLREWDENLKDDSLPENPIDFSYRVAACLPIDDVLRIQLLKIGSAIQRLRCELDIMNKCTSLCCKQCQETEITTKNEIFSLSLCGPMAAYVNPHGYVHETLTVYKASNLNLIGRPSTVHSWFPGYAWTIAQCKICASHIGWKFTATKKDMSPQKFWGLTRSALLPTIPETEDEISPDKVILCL

[12] = molecular target: Programmed cell death 1 ligand 1 (Mus musculus, UniProt Q9EP73); test: Binding affinity to mouse PD-L1 assessed as dissociation constant incubated for 15 mins by MST assay
Chain of Programmed cell death 1 ligand 1 (Q9EP73 whole entry): as the sequence (Q9EP73 whole entry, one chain of several) above

4T1 [13] = test: Antitumor activity against mouse 4T1 cells assessed as decrease in cell viability at 0.078 to 0.312 uM incubated for 24 hrs by LDH assay; format: functional, cell-based; conditions: dose 0.078-0.312 µM
4T1 [14] = test: Antitumor activity against mouse 4T1 cells assessed as inhibition of cell viability incubated for 48 hrs by MTT assay; format: functional, cell-based; conditions: 4T1, 48 h
[15] = Cytotoxicity against BALB/c mouse PBMC cells at <=0.312 uM incubated for 48 hrs by MTT assay; format: toxicity, cell-based
4T1 [16] = test: Antitumor activity against mouse 4T1 cells assessed as increase in cell mortality rate at 0.312 uM pretreated with compound followed by co-culture of CD3/CD28-activated PBMC cells measured after 24 hrs by LDH assay relative to control; format: functional
4T1 [17] = test: Antitumor activity against mouse 4T1 cells assessed as increase in cell mortality rate at 0.078 uM pretreated with compound followed by co-culture of CD3/CD28-activated PBMC cells measured after 24 hrs by LDH assay relative to control; format: functional
4T1 [18] = test: Antitumor activity against mouse 4T1 cells allografted in BALB/c mouse assessed as reduction in tumor volume at 30 to 60 mg/kg, ip qd for 15 days; format: functional, organism-based; conditions: dose 30-60 mg/kg, time 15.0 day
4T1 [19] = test: Antitumor activity against mouse 4T1 cells allografted in BALB/c mouse assessed as reduction in tumor volume at 60 mg/kg, ip qd for 15 days in presence of Paclitaxel; format: functional, organism-based; conditions: time 15.0 day
4T1 [20] = test: Antitumor activity against mouse 4T1 cells allografted in BALB/c mouse assessed as reduction in tumor weight at 30 to 60 mg/kg, ip qd for 15 days; format: functional, organism-based; conditions: dose 30-60 mg/kg, time 15.0 day
4T1 [21] = test: Antitumor activity against mouse 4T1 cells allografted in BALB/c mouse assessed as reduction in tumor weight at 60 mg/kg, ip qd for 15 days in presence of Paclitaxel; format: functional, organism-based; conditions: time 15.0 day
4T1 [22] = test: Antitumor activity against mouse 4T1 cells allografted in BALB/c mouse at 60 mg/kg, ip qd for 15 days relative to control; format: functional; conditions: 4T1, 360 h, time 15 day, read-out: TGI
4T1 [23] = test: Antitumor activity against mouse 4T1 cells allografted in BALB/c mouse at 30 mg/kg, ip qd for 15 days relative to control; format: functional; conditions: 4T1, 360 h, time 15 day, read-out: TGI
4T1 [24] = test: Antitumor activity against mouse 4T1 cells allografted in BALB/c mouse at 60 mg/kg, ip qd for 15 days in presence of Paclitaxel relative to control; format: functional; conditions: 4T1, 360 h, time 15 day, read-out: TGI
[25] = Toxicity in BALB/c mouse allografted with mouse 4T1 cells assessed as body weight loss at 30 to 60 mg/kg, ip qd for 15 days; format: organism-based; conditions: in vivo, 360 h, dose 30-60 mg/kg, time 15 day
[26] = Toxicity in BALB/c mouse allografted with mouse 4T1 cells assessed as body weight loss at 60 mg/kg, ip qd for 15 days in presence of Paclitaxel; format: organism-based; conditions: in vivo, 360 h, time 15 day

For `COc1nc(OCc2cccc(-c3ccccc3)c2C)ccc1CNCCNC(=O)CCCCCCCCNC(=O)COc1ccc(C2CCC(=O)NC2=O)cc1` (configuration not stated), the Activity [1] was “Active”, the Emax [2] was 85% and the DC50 [3] was 0.609 µM. The Activity [4] was “Active”, the Activity [5] was “Active” and the Activity [6] was “Active”. For the same compound, the Activity [7] was “inactive”, the Activity [8] was “inactive” and the Activity [9] was “Active”. The Activity [10] was “Active”, the Activity [11] was “Active” and the pKd (Protein cereblon) was 3.88. The pKd [12] was 4.23, the Activity (4T1 [13]) was “Active” and the pIC50 (4T1 [14]) was 4.64. The Activity [15] was “Non-Toxic”, the Activity (4T1 [16]) was 72.3% and the Activity (4T1 [17]) was 31.8%. The Activity (4T1 [18]) was “Active”, the Activity (4T1 [19]) was “Active” and the Activity (4T1 [20]) was “Active”. The Activity (4T1 [21]) was “Active”, the inhibition in vivo at 60 mg/kg (4T1 [22]) was 83.2% and the inhibition in vivo at 30 mg/kg (4T1 [23]) was 75%. The inhibition in vivo at 60 mg/kg (4T1 [24]) was 86.7%, the Activity [25] was “Non-Toxic” and the Activity [26] was “Non-Toxic”.
